Converted amounts (≈) assume the structure as drawn. Starred links: 1 amine or outer side, 2 acyl side, 3 side chain; linkers in the order of their positions; H or OH if unused. Non-standard residues stand in square brackets, D forms with d. Residues, ends and D or L forms follow the SMILES beside them. *: point of attachment. Ethylenediamine = C(CN[*:2])N[*:1]; Lauroyl = CCCCCCCCCCCC(=O)*; Decanoyl = CCCCCCCCCC(=O)*; Octanoyl = CCCCCCCC(=O)*
Columns and labels:
Assay type in all cases: cell-based
[1] = test system: Staphylococcus aureus ATCC 29213; assay: MIC, NCCLS M7-A6 broth microdilution, cation-adjusted Mueller Hinton broth (Table 9, no superscript); settings: ATCC 29213
Outline: (§1)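 Broth microdilution in cation-adjusted Mueller Hinton broth, log-phase inoculum giving 5×10^5 to 1×10^6 CFU/milliliter per well. Overnight incubation at 37° C. MIC taken as lowest peptide concentration with no visible turbidity versus a no-peptide control.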

[2] = test system: Escherichia coli ATCC 25922; assay: MIC, NCCLS M7-A6 broth microdilution (Table 9, no superscript); settings: ATCC 25922
Outline: as §1

[3] = test system: Pseudomonas aeruginosa ATCC 27853; assay: as above; settings: ATCC 27853
Outline: as §1

Salmonella dublin (Lane) = assay: as above
Outline: as §1

[4] = test system: Staphylococcus epidermidis ATCC 12228; assay: as above; settings: ATCC 12228
Outline: as §1

[5] = test system: Propionibacterium acnes ATCC 6919; assay: MIC, agar dilution method NCCLS M11-A6, Brucella agar, anaerobic (Table 9, superscript c); settings: ATCC 6919
Outline: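 MIC taken as the lowest peptide level giving no colonies on the plate. Plates were inoculated to 1.5×10^8 CFU/milliliter, then kept anaerobically at 37° C. for 48-96 hours; method follows NCCLS M11-A6.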

[6] = test system: Candida albicans ATCC 18804; assay: MIC in yeasts, NCCLS M27-A2 broth microdilution, RPMI 1640 (Table 9, letter e); settings: ATCC 18804
Outline: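 Plates incubated 24 to 48 hours at 37° C, with yeast seeded at 0.5×10^3–2.5×10^3 CFU/milliliter final in RPMI 1640 (glutamine, phenol red indicator). MIC was read as the lowest peptide concentration showing no visible growth.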

| SMILES | MIC S. aureus [1] [mg/L] | MIC E. coli [2] [mg/L] | MIC P. aeruginosa [3] [mg/L] | MIC S. dublin (Salmonella dublin (Lane)) [mg/L] | MIC S. epidermidis [4] [mg/L] | MIC P. acnes [5] [c ug/mL] | MIC C. albicans [6] [e ug/mL] |
| --- | --- | --- | --- | --- | --- | --- | --- |
| CCCCCCCCCC(=O)NCCNC(=O)[C@H](CCCNC(=N)N)NC(=O)[C@H](CCSC)NC(=O)[C@H](Cc1ccccc1)NC(=O)[C@H](CC(N)=O)NC(=O)[C@H](CCCNC(=N)N)NC(=O)[C@H](C)NC(=O)[C@@H](NC(=O)[C@H](CC(=O)O)NC(=O)[C@H](CCCNC(=N)N)NC(=O)[C@H](Cc1c[nH]c2ccccc12)NC(=O)[C@H](CCCNC(=N)N)NC(=O)[C@H](CO)NC(=O)[C@@H](N)CCCNC(=N)N)C(C)C [Peptide 175, H2N-RSRWRDVARNFMR-Ethylamidodecanyl] (H-RSRWRDVARNFMR-{Ethylenediamine-Decanoyl}; C-terminus assumed) | 4 (≈ 2.06 µM) | 4 (≈ 2.06 µM) | 2 (≈ 1.03 µM) | 4 (≈ 2.06 µM) | 1 (≈ 0.514 µM) | 32 | 8 |
| CCCCCCCCCCCC(=O)NCCNC(=O)[C@H](CCCNC(=N)N)NC(=O)[C@H](CCSC)NC(=O)[C@H](Cc1ccccc1)NC(=O)[C@H](CC(N)=O)NC(=O)[C@H](CCCNC(=N)N)NC(=O)[C@H](C)NC(=O)[C@@H](NC(=O)[C@H](CC(=O)O)NC(=O)[C@H](CCCNC(=N)N)NC(=O)[C@H](Cc1c[nH]c2ccccc12)NC(=O)[C@H](CCCNC(=N)N)NC(=O)[C@H](CO)NC(=O)[C@@H](N)CCCNC(=N)N)C(C)C [Peptide 176, H2N-RSRWRDVARNFMR-Ethylamidolauryl] (H-RSRWRDVARNFMR-{Ethylenediamine-Lauroyl}; C-terminus assumed) | 8 (≈ 4.05 µM) | 8 (≈ 4.05 µM) | 32 (≈ 16.2 µM) | 16 (≈ 8.1 µM) | 1 (≈ 0.506 µM) | 64 | 4 |
| CCCCCCCCCC(=O)NCCCC[C@H](NC(=O)[C@H](CCCNC(=N)N)NC(=O)[C@H](CCSC)NC(=O)[C@H](Cc1ccccc1)NC(=O)[C@H](CC(N)=O)NC(=O)[C@H](CCCNC(=N)N)NC(=O)[C@H](C)NC(=O)[C@@H](NC(=O)[C@H](CC(=O)O)NC(=O)[C@H](CCCNC(=N)N)NC(=O)[C@H](Cc1c[nH]c2ccccc12)NC(=O)[C@H](CCCNC(=N)N)NC(=O)[C@H](CO)NC(=O)[C@@H](N)CCCNC(=N)N)C(C)C)C(N)=O [Peptide 185, H2N-RSRWRDVARNFMRK(Decanyl)-NH2] (H-RSRWRDVARNFMRK(Decanoyl)-NH2) | 4 (≈ 1.97 µM) | 8 (≈ 3.94 µM) | 16 (≈ 7.88 µM) | 16 (≈ 7.88 µM) | 1 (≈ 0.492 µM) | 32 | 32 |
| CCCCCCCCCCCC(=O)NCCCC[C@H](NC(=O)[C@H](CCCNC(=N)N)NC(=O)[C@H](CCSC)NC(=O)[C@H](Cc1ccccc1)NC(=O)[C@H](CC(N)=O)NC(=O)[C@H](CCCNC(=N)N)NC(=O)[C@H](C)NC(=O)[C@@H](NC(=O)[C@H](CC(=O)O)NC(=O)[C@H](CCCNC(=N)N)NC(=O)[C@H](Cc1c[nH]c2ccccc12)NC(=O)[C@H](CCCNC(=N)N)NC(=O)[C@H](CO)NC(=O)[C@@H](N)CCCNC(=N)N)C(C)C)C(N)=O [Peptide 186, H2N-RSRWRDVARNFMRK(Lauryl)-NH2] (H-RSRWRDVARNFMRK(Lauroyl)-NH2) | 4 (≈ 1.94 µM) | 4 (≈ 1.94 µM) | 4 (≈ 1.94 µM) | 16 (≈ 7.77 µM) | 1 (≈ 0.486 µM) | 16 | 16 |
| CCCCCCCC(=O)NCCCC[C@@H](NC(=O)[C@@H](CCCNC(=N)N)NC(=O)[C@@H](CC(C)C)NC(=O)[C@@H](Cc1ccccc1)NC(=O)[C@@H](CC(N)=O)NC(=O)[C@@H](CCCNC(=N)N)NC(=O)[C@@H](C)NC(=O)[C@H](NC(=O)[C@@H](CC(=O)O)NC(=O)[C@@H](CCCNC(=N)N)NC(=O)[C@@H](Cc1c[nH]c2ccccc12)NC(=O)[C@@H](CCCNC(=N)N)NC(=O)[C@@H](CO)NC(=O)[C@H](N)CCCNC(=N)N)C(C)C)C(N)=O [Peptide 193, H2N-rsrwrdvarnflrk(Octanyl)-NH2] (H-[dR][dS][dR][dW][dR][dD][dV][dA][dR][dN][dF][dL][dR][dK](Octanoyl)-NH2) | 16 (≈ 8.06 µM) | 8 (≈ 4.03 µM) | 16 (≈ 8.06 µM) | 16 (≈ 8.06 µM) | 2 (≈ 1.01 µM) | 8 | 32 |

Further lines, results first:

| MIC S. aureus [1] [mg/L] | MIC E. coli [2] [mg/L] | MIC P. aeruginosa [3] [mg/L] | MIC S. dublin (Salmonella dublin (Lane)) [mg/L] | MIC S. epidermidis [4] [mg/L] | MIC P. acnes [5] [c ug/mL] | MIC C. albicans [6] [e ug/mL] | SMILES |
| --- | --- | --- | --- | --- | --- | --- | --- |
| 8 (≈ 3.97 µM) | 4 (≈ 1.99 µM) | 4 (≈ 1.99 µM) | 16 (≈ 7.95 µM) | 1 (≈ 0.497 µM) | 64 | 16 | CCCCCCCCCC(=O)NCCCC[C@H](NC(=O)[C@H](CCCNC(=N)N)NC(=O)[C@H](CC(C)C)NC(=O)[C@H](Cc1ccccc1)NC(=O)[C@H](CC(N)=O)NC(=O)[C@H](CCCNC(=N)N)NC(=O)[C@H](C)NC(=O)[C@@H](NC(=O)[C@H](CC(=O)O)NC(=O)[C@H](CCCNC(=N)N)NC(=O)[C@H](Cc1c[nH]c2ccccc12)NC(=O)[C@H](CCCNC(=N)N)NC(=O)[C@H](CO)NC(=O)[C@@H](N)CCCNC(=N)N)C(C)C)C(N)=O [Peptide 180, H2N-RSRWRDVARNFLRK(Decanyl)-NH2] (H-RSRWRDVARNFLRK(Decanoyl)-NH2) |
| 4 (≈ 1.96 µM) | 4 (≈ 1.96 µM) | 4 (≈ 1.96 µM) | 16 (≈ 7.84 µM) | 1 (≈ 0.49 µM) | 64 | 8 | CCCCCCCCCCCC(=O)NCCCC[C@H](NC(=O)[C@H](CCCNC(=N)N)NC(=O)[C@H](CC(C)C)NC(=O)[C@H](Cc1ccccc1)NC(=O)[C@H](CC(N)=O)NC(=O)[C@H](CCCNC(=N)N)NC(=O)[C@H](C)NC(=O)[C@@H](NC(=O)[C@H](CC(=O)O)NC(=O)[C@H](CCCNC(=N)N)NC(=O)[C@H](Cc1c[nH]c2ccccc12)NC(=O)[C@H](CCCNC(=N)N)NC(=O)[C@H](CO)NC(=O)[C@@H](N)CCCNC(=N)N)C(C)C)C(N)=O [Peptide 181, H2N-RSRWRDVARNFLRK(Lauryl)-NH2] (H-RSRWRDVARNFLRK(Lauroyl)-NH2) |
| 2 (≈ 0.993 µM) | 2 (≈ 0.993 µM) | 2 (≈ 0.993 µM) | 4 (≈ 1.99 µM) | 1 (≈ 0.497 µM) | 4 | 16 | CCCCCCCCCC(=O)NCCCC[C@@H](NC(=O)[C@@H](CCCNC(=N)N)NC(=O)[C@@H](CC(C)C)NC(=O)[C@@H](Cc1ccccc1)NC(=O)[C@@H](CC(N)=O)NC(=O)[C@@H](CCCNC(=N)N)NC(=O)[C@@H](C)NC(=O)[C@H](NC(=O)[C@@H](CC(=O)O)NC(=O)[C@@H](CCCNC(=N)N)NC(=O)[C@@H](Cc1c[nH]c2ccccc12)NC(=O)[C@@H](CCCNC(=N)N)NC(=O)[C@@H](CO)NC(=O)[C@H](N)CCCNC(=N)N)C(C)C)C(N)=O [Peptide 194, H2N-rsrwrdvarnflrk(Decanyl)-NH2] (H-[dR][dS][dR][dW][dR][dD][dV][dA][dR][dN][dF][dL][dR][dK](Decanoyl)-NH2) |

From patent US20050282755A1, “Compositions having antimicrobial activity and uses thereof” (priority 2004, published 2005)
